Reference: patent US20260234157A1, “COMPOUND AND METHOD FOR TARGETED DEGRADATION OF ANDROGEN RECEPTOR” (Gan & Lee Pharmaceuticals Co., Ltd., priority 2023, published 2026)
Residue numbers refer to the chain shown, from its start. Where two headings read alike, the source gives them in different places.

How the values were obtained:
Format in all cases: cell-based
AR protein [1] = target: T1, AR protein (Homo sapiens, UniProt P10275, T878A); assay: Degradation of AR protein in LNCaP cells (Western blot); conditions: for inhibition at 0.01 µM: read-out: Degradation rates of the AR protein in LNCaP cells, 10 nM (%); for inhibition at 0.1 µM: read-out: Degradation rates of the AR protein in LNCaP cells, 100 nM (%)
T1 construct: degradation activity of the compounds disclosed in the present disclosure on AR protein in LNCaP cells; host or cells: LNCaP FGC
T1 sequence (P10275 1-920 T878A): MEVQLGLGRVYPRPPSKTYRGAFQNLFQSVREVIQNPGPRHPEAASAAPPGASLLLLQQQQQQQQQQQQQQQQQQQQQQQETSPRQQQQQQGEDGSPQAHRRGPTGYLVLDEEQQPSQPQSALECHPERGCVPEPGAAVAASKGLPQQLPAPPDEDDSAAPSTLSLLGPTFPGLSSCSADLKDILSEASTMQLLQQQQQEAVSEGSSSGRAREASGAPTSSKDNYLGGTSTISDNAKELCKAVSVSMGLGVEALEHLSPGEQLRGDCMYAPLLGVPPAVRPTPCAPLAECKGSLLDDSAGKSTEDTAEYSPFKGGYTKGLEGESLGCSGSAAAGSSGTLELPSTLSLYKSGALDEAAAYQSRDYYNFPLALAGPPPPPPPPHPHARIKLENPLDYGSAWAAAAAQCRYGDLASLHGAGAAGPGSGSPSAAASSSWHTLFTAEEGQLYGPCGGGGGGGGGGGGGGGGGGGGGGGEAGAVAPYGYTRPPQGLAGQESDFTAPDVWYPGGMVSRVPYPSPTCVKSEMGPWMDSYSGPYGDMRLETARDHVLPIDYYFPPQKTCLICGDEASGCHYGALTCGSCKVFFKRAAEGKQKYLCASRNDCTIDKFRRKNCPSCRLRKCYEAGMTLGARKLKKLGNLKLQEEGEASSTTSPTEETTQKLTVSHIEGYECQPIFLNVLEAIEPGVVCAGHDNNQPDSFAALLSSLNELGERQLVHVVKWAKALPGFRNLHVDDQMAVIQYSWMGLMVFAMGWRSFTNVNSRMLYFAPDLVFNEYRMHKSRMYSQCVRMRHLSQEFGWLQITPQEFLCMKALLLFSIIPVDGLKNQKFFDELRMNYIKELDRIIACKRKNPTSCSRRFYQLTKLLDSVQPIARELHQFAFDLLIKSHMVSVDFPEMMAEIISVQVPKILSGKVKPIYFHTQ
Procedure, shortened: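 AR assessed by SDS-PAGE/Western blot with infrared imaging; band greyscale normalised to GAPDH gave percent degradation.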

AR protein [2] = target: T2, AR protein (Homo sapiens, UniProt P10275); assay: Degradation of AR protein in VCaP cells (Western blot); conditions: 8 hours; for inhibition at 0.01 µM: compound at 10 nM, read-out: Degradation rate of the AR protein in VCaP cells, 10 nM (%); for inhibition at 0.1 µM: compound at 100 nM, read-out: Degradation rate of the AR protein in VCaP cells, 100 nM (%)
T2 construct: degradation activity of the compounds disclosed in the present disclosure on AR protein in VCaP cells; host or cells: VCaP
T2 sequence (P10275 1-920): T1 sequence (P10275 1-920 T878A) with A878T
Procedure, shortened: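 VCaP cells treated with compound alongside solvent controls for 8 h, then lysed in RIPA and protein quantified by BCA. AR detected by SDS-PAGE/Western blot with infrared imaging. Degradation rate calculated from band grayscale, with GAPDH as internal reference.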

VCaP cells = assay: Inhibition of proliferation of VCaP cells (WST-8); conditions: Homo sapiens, read-out: IC50 for inhibiting the proliferation of VCaP cells
Procedure, shortened: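 VCaP FGC cells, 15000 per well in DMEM with 10% FBS, were cultured at 37° C, 5% CO2. On day nine, WST-8 reagent was added to read proliferation.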

LNCaP FGC cells = assay: Inhibition of proliferation of LNCaP cells (WST-8)
Procedure: The cells were cultured in a cell culture incubator with 5% CO2 at 37° C. overnight. […] On the sixth day, 96 well plates were taken out, and 20 μL of WST-8 (Beytime, C0040) reagent was added to each well.

[3] = LNCaP cells, compound 10 nM, 8 hours, Western blot grayscale, GAPDH internal reference
[4] = LNCaP cells, compound 100 nM, 8 hours, Western blot grayscale, GAPDH internal reference
[5] = VCaP cells, 168 hours, WST-8 absorbance at 450 nm
[6] = Homo sapiens, LNCaP, 96 h, LNCaP FGC cells, 96 hours, WST-8 absorbance at 450 nm, read-out: IC50 for inhibiting the proliferation of LNCaP cells
[7] = Homo sapiens, LNCaP, 96 h, read-out: IC50 for inhibiting the proliferation of LNCaP cells, LNCaP FGC cells, 96 hours, WST-8 absorbance at 450 nm

SMILES	inhibition at 0.01 µM (AR protein [1]; [3]) [%]	inhibition at 0.1 µM (AR protein [1]; [4]) [%]	inhibition at 0.01 µM (AR protein [2]) [%]	inhibition at 0.1 µM (AR protein [2]) [%]	IC50 (VCaP cells; [5]) [nM]	IC50 (LNCaP FGC cells; [6]) [nM]	IC50 (LNCaP FGC cells; LNCaP FGC cells, 96 hours, WST-8 absorbance at 450 nm, read-out: IC50 for inhibiting the proliferation of LNCaP cells) [nM]	inhibition at 0.01 µM (AR protein [1]; LNCaP, 8 h) [%]	inhibition at 0.1 µM (AR protein [1]; LNCaP, 8 h) [%]	IC50 (VCaP cells; VCaP, 168 h) [nM]	IC50 (LNCaP FGC cells; [7]) [nM]
COc1cc(O[C@H]2C(C)(C)[C@H](NC(=O)c3ccc(N4CCC(CN5CCC6(CCc7cc8c(cc7O6)CN(C6CCC(=O)NC6=O)C8=O)CC5)CC4)cc3)C2(C)C)ccc1C#N (stereo partly drawn) [Compound 296]	53	63	0	59	1	6600					
COc1cc(O[C@H]2C(C)(C)[C@H](NC(=O)c3ccc(N4CCC(C)(CN5CCC6(CC5)COc5c(ccc7c5C(=O)N(C5CCC(=O)NC5=O)C7)C6)CC4)cc3)C2(C)C)ccc1C#N (stereo partly drawn) [Compound 266]	49	73	21	74	3.5	22000					
COc1cc(O[C@H]2C(C)(C)[C@H](NC(=O)c3ccc(N4CCC(F)(CN5CCC6(CC5)COc5cc7c(cc5O6)CN(C5CCC(=O)NC5=O)C7=O)CC4)cc3)C2(C)C)ccc1C#N (stereo partly drawn) [Compound 284]	18	51	9	73	19	5840					
N#Cc1ccc(O[C@H]2CC[C@H](NC(=O)c3ccc(N4CCC(CN5CCC6(CC5)COc5c6ccc6c5CN(C5CCC(=O)NC5=O)C6=O)(C5CC5)CC4)nn3)CC2)cc1Cl (stereo partly drawn) [Compound 238]	31	61	54	79	1.6	21					
COC1(CN2CCC3(CCc4ccc5c(c4O3)CN(C3CCC(=O)NC3=O)C5=O)CC2)CCN(c2ccc(C(=O)N[C@H]3CC[C@H](Oc4ccc(C#N)c(Cl)c4)CC3)nn2)CC1 (stereo partly drawn) [Compound 167]	45	18	33	67	> 90000		80100				
COc1cc(O[C@H]2CC[C@H](NC(=O)c3ccc(N4CCC(CN5CCC6(CC5)COc5c6ccc6c5C(=O)N(C5CCC(=O)NC5=O)C6=O)(OC)CC4)cc3)CC2)ccc1C#N (stereo partly drawn) [Compound 219]			11	70				-40	21	60	260
N#Cc1ccc(O[C@H]2CC[C@H](NC(=O)c3ccc(N4CCN(CC(=O)N5CCC6(CC5)COc5c6ccc6c5CN(C5CCC(=O)NC5=O)C6=O)CC4)nn3)CC2)cc1Cl (stereo partly drawn) [Compound 241]	50	63	29	77	8.5	68600					
C[C@H]1CN(c2ccc(C(=O)N[C@H]3CC[C@H](Oc4ccc(C#N)c(Cl)c4)CC3)nn2)C[C@@H]1CN1CCC2(CC1)COc1c2ccc2c1CN(C1CCC(=O)NC1=O)C2=O (stereo partly drawn) [Compound 212]	79	70	60	82	1	320					
COC1(CN2CCC3(CC2)COc2ccc4c(c2C3)C(=O)N(C2CCC(=O)NC2=O)C4)CCN(c2ccc(C(=O)N[C@H]3CC[C@H](Oc4ccc(C#N)c(Cl)c4)CC3)nn2)CC1 (stereo partly drawn) [Compound 148]	38	36	18	35	4010	8660					
COC1(CN2CC3(CCc4ccc5c(c4O3)C(=O)N(C3CCC(=O)NC3=O)C5)C2)CCN(c2ccc(C(=O)N[C@H]3CC[C@H](Oc4ccc(C#N)c(Cl)c4)CC3)nn2)CC1 (stereo partly drawn) [Compound 138]	-9	-1	-28	7	> 90000	71500					
N#Cc1ccc(O[C@H]2CC[C@H](NC(=O)c3ccc(N4CC(CN5CCC6(CCc7cc8c(cc7O6)C(=O)N(C6CCC(=O)NC6=O)C8=O)CC5)C4)nn3)CC2)cc1Cl (stereo partly drawn) [Compound 20]	13	48	41	54	170	1000					
N#Cc1ccc(O[C@H]2CC[C@H](NC(=O)c3ccc(N4CCC(N5CCC(N6CCC7(CC6)COc6c7ccc7c6CN(C6CCC(=O)NC6=O)C7=O)CC5)CC4)nn3)CC2)cc1Cl (stereo partly drawn) [Compound 173]			75	86				75	72	1	12300
CCC1(CN2CCC3(CC2)COc2c3ccc3c2C(=O)N(C2CCC(=O)NC2=O)C3=O)CCN(c2ccc(C(=O)N[C@H]3CC[C@H](Oc4ccc(C#N)c(Cl)c4)CC3)nn2)CC1 (stereo partly drawn) [Compound 249]	-5	51	-21	56	220	12100					
N#Cc1ccc(O[C@H]2CC[C@H](NC(=O)c3ccc(N4CC(N5CCC6(CCc7cc8c(cc7O6)C(=O)N(C6CCC(=O)NC6=O)C8=O)CC5)C4)nn3)CC2)cc1Cl (stereo partly drawn) [Compound 25]			13	32				49	43	910	390
